This passage reports IC50 results from ChEMBL document CHEMBL1130835, “Peptidyl beta-homo-aspartals: specific inhibitors of interleukin-1 beta converting enzyme and its homologues (caspases)” (Bioorg Med Chem Lett, 1998).

Assay [1] deals with T1, Papain (Carica papaya, UniProt P00784).
T1 sequence (P00784 whole entry): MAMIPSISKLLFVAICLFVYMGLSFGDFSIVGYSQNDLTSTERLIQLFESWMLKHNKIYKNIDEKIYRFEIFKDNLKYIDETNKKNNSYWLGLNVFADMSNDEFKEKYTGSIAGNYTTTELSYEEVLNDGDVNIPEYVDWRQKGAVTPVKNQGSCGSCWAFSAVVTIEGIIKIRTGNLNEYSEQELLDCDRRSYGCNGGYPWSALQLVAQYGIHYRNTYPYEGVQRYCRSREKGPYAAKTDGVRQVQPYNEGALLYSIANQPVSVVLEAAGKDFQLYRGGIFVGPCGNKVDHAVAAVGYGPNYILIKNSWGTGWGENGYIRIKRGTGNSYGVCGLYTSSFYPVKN
The experiment in a line: Ability to inhibit papain was evaluated by amidolytic method using fluorogenic or chromogenic substrates.

Assay [2] has as its target T2, Caspase-3 (Homo sapiens, UniProt P42574).
T2 sequence (P42574 whole entry): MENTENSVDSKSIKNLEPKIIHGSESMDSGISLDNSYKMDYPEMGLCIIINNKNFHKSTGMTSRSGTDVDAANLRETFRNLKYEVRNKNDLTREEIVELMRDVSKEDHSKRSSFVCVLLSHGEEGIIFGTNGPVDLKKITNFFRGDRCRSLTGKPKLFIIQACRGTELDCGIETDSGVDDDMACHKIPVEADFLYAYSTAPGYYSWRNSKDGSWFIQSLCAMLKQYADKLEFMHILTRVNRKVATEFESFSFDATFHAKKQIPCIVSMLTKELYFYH
The experiment in a line: Amidolytic activity of THP.1 cell lysate against Caspase-3 using C3-Asp-AMC as a substrate. It is filed as cell-based.

Assay [3] has as its target T3, Caspase-1 (Homo sapiens, UniProt P29466).
T3 sequence (P29466 whole entry): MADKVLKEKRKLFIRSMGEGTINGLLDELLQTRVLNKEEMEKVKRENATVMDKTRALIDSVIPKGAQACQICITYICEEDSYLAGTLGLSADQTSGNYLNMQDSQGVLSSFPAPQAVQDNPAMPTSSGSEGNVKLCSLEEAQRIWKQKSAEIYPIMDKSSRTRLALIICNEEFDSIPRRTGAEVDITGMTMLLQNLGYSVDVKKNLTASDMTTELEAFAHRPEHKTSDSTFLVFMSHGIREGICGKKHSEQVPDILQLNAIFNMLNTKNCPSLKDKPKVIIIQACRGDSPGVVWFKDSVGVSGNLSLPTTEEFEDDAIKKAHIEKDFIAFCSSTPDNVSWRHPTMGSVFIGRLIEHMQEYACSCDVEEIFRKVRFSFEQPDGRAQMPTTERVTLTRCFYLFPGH
The assay is described as follows: Ability to inhibit IL-1 beta converting enzyme was evaluated in LPS-stimulated human whole blood. It is filed as tissue-based.

Assay [4] deals with T3, Caspase-1. The assay is described as follows: Amidolytic activity of THP.1 cell lysate against IL-1 beta converting enzyme using C1-Asp-AMC as a substrate. The assay is classed as cell-based.
In assay [5] the target is Prothrombin (Homo sapiens, UniProt P00734). The assay is described as follows: Ability to inhibit Thrombin was evaluated by amidolytic method using fluorogenic or chromogenic substrates.
The target of assay [6] is Serine protease 1 (Homo sapiens, UniProt P07477). The experiment in a line: Ability to inhibit Trypsin was evaluated by amidolytic method using fluorogenic or chromogenic substrates.
Assay [7] concerns the target T2, Caspase-3. The experiment in a line: Amidolytic activity of THP.1 cell lysate against Caspase-3 using C3-Asp-AMC as a substrate at 10e -4 M concentration; NI is No Inhibition.

Sequence of Serine protease 1 (P07477 whole entry): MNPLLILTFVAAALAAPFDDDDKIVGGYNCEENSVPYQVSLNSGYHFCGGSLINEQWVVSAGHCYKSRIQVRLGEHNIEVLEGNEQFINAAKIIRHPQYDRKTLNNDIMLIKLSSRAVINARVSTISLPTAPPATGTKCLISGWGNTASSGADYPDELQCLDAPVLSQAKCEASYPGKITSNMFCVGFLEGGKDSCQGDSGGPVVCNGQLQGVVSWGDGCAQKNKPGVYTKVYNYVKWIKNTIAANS

The term IC50 denotes the concentration needed to halve the response being measured. Read a high IC50 as lower potency. For `CC(C)COC(=O)N[C@@H](Cc1ccccc1)C(=O)N[C@H](CC=O)CCCNC(=N)N`, in assay [1], half-maximal inhibition (IC50) was put at 105000 nM.

For the molecule `CC(C)COC(=O)N[C@@H](Cc1ccccc1)C(=O)N[C@@H](C=O)CCCN=C(N)N`, in assay [1], inhibition was half-maximal at 12500 nM (IC50).

With `CC(=O)N[C@@H](Cc1ccc(O)cc1)C(=O)N[C@H](C(=O)N[C@@H](C)C(=O)N[C@H](C=O)CC(=O)O)C(C)C`, the values for the IC50 in assay [2], in assay [3] and in assay [4] were 190000 nM, 2000 nM and 68000 nM, respectively.

`CC(C)COC(=O)N[C@@H](Cc1ccccc1)C(=O)N[C@H](C=O)CCCNC(=N)N`: the half-inhibitory concentration (IC50) in assay [1] was 130 nM.

Take `CC(C)(C)OC(=O)N[C@H](Cc1ccccc1)C(=O)N1CCC[C@@H]1C(=O)N[C@H](C=O)CCCNC(=N)N`: the IC50 in assay [5] is 9 nM; in assay [6], 3 nM.

Consider `CC(C)(C)OC(=O)N[C@H](Cc1ccccc1)C(=O)N1CCC[C@@H]1C(=O)N[C@@H](C=O)CCCN=C(N)N`, for which the IC50 in assay [5] is 5440 nM; in assay [6] it was 1790 nM.

`CC[C@H](C)[C@H](NC(=O)[C@H](CCCN=C(N)N)NC(=O)OCc1ccccc1)C(=O)N[C@H](CC=O)Cc1ccccc1`: the IC50 in assay [1] stood at 65000 nM.

For `CC(=O)N[C@@H](CC(=O)O)C(=O)N[C@@H](CCC(=O)O)C(=O)N[C@H](C(=O)N[C@H](C=O)CC(=O)O)C(C)C`, the half-maximal inhibitory concentration (IC50) result in assay [7] is “Not Active”; in assay [4], 70000 nM.

Regarding `CC[C@H](C)[C@H](NC(=O)[C@H](CCCN=C(N)N)NC(=O)OCc1ccccc1)C(=O)N[C@H](C=O)Cc1ccccc1`, in assay [1], the IC50 was determined as 70 nM.

The molecule `CC[C@H](C)[C@H](NC(=O)[C@H](CCCN=C(N)N)NC(=O)OCc1ccccc1)C(=O)N[C@@H](C=O)Cc1ccccc1` gave an IC50 in assay [1] of 8500 nM.

Consider `CC(=O)N[C@@H](CC(=O)O)C(=O)N[C@@H](CCC(=O)O)C(=O)N[C@H](C(=O)N[C@H](CC=O)CC(=O)O)C(C)C`, for which the IC50 in assay [2] stood at 438 nM; in assay [4] it was 22.3 nM.

`CC(=O)N[C@@H](Cc1ccc(O)cc1)C(=O)N[C@H](C(=O)N[C@@H](C)C(=O)N[C@H](CC=O)CC(=O)O)C(C)C`: the IC50 result in assay [7] is “Not Active”; in assay [3], 2900 nM; in assay [4], 142000 nM.

Turning to `CC(C)(C)OC(=O)N[C@H](Cc1ccccc1)C(=O)N1CCC[C@@H]1C(=O)N[C@H](CC=O)CCCN=C(N)N`, the 50% inhibitory concentration (IC50) in assay [5] is 190 nM; in assay [6] it was 1760 nM.
